In US7727988B2, “Azabicyclo[3.1.0]hex-3-yl}alkyl)pyrimidinedione” (Glaxo Group Limited, priority 2006, dated 2010):
Counter-ions that a name gives are not always drawn.

molecular target: T1, dopamine D2 receptor (Homo sapiens, UniProt P14416); experiment: GTPS scintillation proximity assay (GTPS-SPA), CHO_D2 membranes; format: biochemical; conditions: up to the highest concentration tested in the assay (3 μM)
T1 construct: expressed in transfected cells; host or cells: Chinese Hamster Ovary (CHO) cells, membranes
T1 sequence (P14416 whole entry): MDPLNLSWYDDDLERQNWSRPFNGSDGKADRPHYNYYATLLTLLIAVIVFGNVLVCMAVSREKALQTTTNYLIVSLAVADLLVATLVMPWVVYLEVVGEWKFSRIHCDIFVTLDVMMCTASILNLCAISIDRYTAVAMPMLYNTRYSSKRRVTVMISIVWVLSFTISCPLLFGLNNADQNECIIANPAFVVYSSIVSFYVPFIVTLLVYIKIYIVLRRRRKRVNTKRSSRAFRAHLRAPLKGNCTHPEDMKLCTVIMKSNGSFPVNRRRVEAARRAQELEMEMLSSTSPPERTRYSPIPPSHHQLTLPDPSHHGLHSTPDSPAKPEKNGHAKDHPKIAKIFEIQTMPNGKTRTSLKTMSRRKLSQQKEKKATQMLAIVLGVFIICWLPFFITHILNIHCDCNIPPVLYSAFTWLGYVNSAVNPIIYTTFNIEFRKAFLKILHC
Protocol: Functional potency of compounds of this invention can be measured by the following GTPS scintillation proximity assay (GTPS-SPA). Cells used in the study are Chinese Hamster Ovary (CHO) Cells. • Cell Line • CHO_D2 • CHO_D3 • Dopamine CHO D3 (Biocat no 1060) transduced with bacmam G0 G-protein (Biocat no 97886)
All steps are performed at 4° C. Cell membranes are prepared as follows. Cell pellets are resuspended in 10 volumes of 50 mM HEPES, 1 mM EDTA pH 7.4, using KOH. Cells are homogenised within a glass waring blender for 2 bursts of 15 secs in 200 mls of buffer (50 mM HEPES, 1 mM leupeptin, 25 μg/ml bacitracin, 1 mM EDTA, 1 mM PMSF, 2 μM Pepstatin A). (the latter 2 reagents added as fresh ×100 and ×500 stocks respectively in ethanol). The blender is plunged into ice for 5 mins after the first burst and 10-40 mins after the final burst to allow foam to dissipate. The material is then spun at 500 g for 20 mins and the supernatant spun for 36 mins at 48.000 g. The pellet is resuspended in the same buffer as above but without PMSF and Pepstatin A. The material is then forced through a 0.6 mm needle, made up to the required volume, (usually ×4 the volume of the original cell pellet), aliquoted and stored frozen at −80° C.
The final top concentration of test drug is 3 μM in the assay and 11 points serial dilution curves 1:4 in 100% DMSO are carried out using a Biomek FX. The test drug at 1% (0.5 ul) total assay volume (TAV) is added to a solid, white Greiner polypropylene 384-well assay plate. 50% TAV (25 μl) of precoupled (for 60 mins at RT) membranes, 5 μg/well, and Wheatgerm Agglutinin Polystyrene Scintillation Proximity Assay beads (RPNQ0260, Amersham), 0.25 mg/well, in 20 mM HEPES (pH 7.4, 100 mM NaCl, 10 mM MgCl2), 60 μg/mL saponin and 30 uM GDP is added. The third addition is a 20% TAV (10 ul) addition of either buffer, (agonist format) or EC80 final assay concentration of agonist, Quinelorane, prepared in assay buffer (antagonist format). The assay is started by the addition of 29% TAV (15 ul) of GTP[35S] 0.38 nM final (37 MBq/mL, 1160 Ci/mmol, Amersham). After all additions assay plates are spun down for 1 min at 1,000 rpm. The final assay cocktail ([…]) is incubated at room temperature to equilibrate for 3-6 hours before reading on a ViewLux™ (613/55 filter) luminescence imager 5 min/plate.
The effect of the test drug over the basal generates fpKi values of test drug are calculated from the IC50 generated by “antagonist format” experiment, using Cheng & Prusoff equation: fKi=IC50/1+([A]/EC50) where: [A] is the concentration of the agonist Quinelorane in the assay and EC50 is the Quinelorane EC50 value obtained in the same experiment. fpKi is defined as −logfKi. • pKi results are only estimated to be accurate to about 0.3-0.5.

Activity in the D2 GTPS-SPA assay, no activity:
Cl.O=c1ccn(CCCCN2C[C@@H]3C[C@]3(c3ccc(C(F)(F)F)cc3)C2)c(=O)[nH]1 [Example E5, 1-(4-{(1S,5R)-1-[4-(trifluoromethyl)phenyl]-3-azabicyclo[3.1.0]hex-3-yl}butyl)-2,4(1H,3H)-pyrimidinedione hydrochloride]
Cl.O=c1[nH]c(=O)n(CCCN2C[C@@H]3C[C@]3(c3ccc(C(F)(F)F)cc3F)C2)cc1-c1cccs1 [Example E12, 1-(3-{(1S,5R)-1-[2-fluoro-4-(trifluoromethyl)phenyl]-3-azabicyclo[3.1.0]hex-3-yl}propyl)-5-(2-thienyl)-2,4(1H,3H)-pyrimidinedione hydrochloride]
Cl.O=c1[nH]c(=O)n(CCCN2C[C@@H]3C[C@]3(c3ccc(C(F)(F)F)cc3)C2)cc1C(F)(F)F [Example E13, 5-(trifluoromethyl)-1-(3-{(1S,5R)-1-[4-(trifluoromethyl)phenyl]-3-azabicyclo[3.1.0]hex-3-yl}propyl)-2,4(1H,3H)-pyrimidinedione hydrochloride]
Cl.N#Cc1cn(CCCN2C[C@@H]3C[C@]3(c3ccc(C(F)(F)F)cc3)C2)c(=O)[nH]c1=O [Example E17, 2,4-dioxo-1-(3-{(1S,5R)-1-[4-(trifluoromethyl)phenyl]-3-azabicyclo[3.1.0]hex-3-yl}propyl)-1,2,3,4-tetrahydro-5-pyrimidinecarbonitrile hydrochloride]
Cl.N#Cc1cn(CCCCN2C[C@@H]3C[C@]3(c3ccc(C(F)(F)F)cc3)C2)c(=O)[nH]c1=O [Example E18, 2,4-dioxo-1-(4-{(1S,5R)-1-[4-(trifluoromethyl)phenyl]-3-azabicyclo[3.1.0]hex-3-yl}butyl)-1,2,3,4-tetrahydro-5-pyrimidinecarbonitrile hydrochloride]
Cc1ncccc1-c1cn(CCCN2C[C@@H]3C[C@]3(c3ccc(C(F)(F)F)cc3)C2)c(=O)[nH]c1=O.Cl.Cl [Example E19, 5-(2-methyl-3-pyridinyl)-1-(3-{(1S,5R)-1-[4-(trifluoromethyl)phenyl]-3-azabicyclo[3.1.0]hex-3-yl}propyl)-2,4(1H,3H)-pyrimidinedione dihydrochloride]
Cl.Cl.O=c1[nH]c(=O)n(CCCN2C[C@@H]3C[C@]3(c3ccc(C(F)(F)F)cc3)C2)cc1-c1ccc(F)nc1 [Example E20, 5-(6-fluoro-3-pyridinyl)-1-(3-{(1S,5R)-1-[4-(trifluoromethyl)phenyl]-3-azabicyclo[3.1.0]hex-3-yl}propyl)-2,4(1H,3H)-pyrimidinedione dihydrochloride]
Cc1cc(-c2cn(CCCN3C[C@@H]4C[C@]4(c4ccc(C(F)(F)F)cc4)C3)c(=O)[nH]c2=O)ccn1.Cl [Example E23, 5-(2-methyl-4-pyridinyl)-1-(3-{(1S,5R)-1-[4-(trifluoromethyl)phenyl]-3-azabicyclo[3.1.0]hex-3-yl}propyl)-2,4(1H,3H)-pyrimidinedione hydrochloride]
Cl.Cl.O=c1[nH]c(=O)n(CCCN2C[C@@H]3C[C@]3(c3ccc(C(F)(F)F)cc3)C2)cc1-c1ccncc1 [Example E24, 5-(4-pyridinyl)-1-(3-{(1S,5R)-1-[4-(trifluoromethyl)phenyl]-3-azabicyclo[3.1.0]hex-3-yl}propyl)-2,4(1H,3H)-pyrimidinedione dihydrocholoride]
Cl.Cl.O=c1[nH]c(=O)n(CCCN2C[C@@H]3C[C@]3(c3ccc(C(F)(F)F)cc3)C2)cc1-c1cccnc1F [Example E25, 5-(2-fluoro-3-pyridinyl)-1-(3-{(1S,5R)-1-[4-(trifluoromethyl)phenyl]-3-azabicyclo[3.1.0]hex-3-yl}propyl)-2,4(1H,3H)-pyrimidinedione dihydrochloride]
Cl.O=c1[nH]c(=O)n(CCCN2C[C@@H]3C[C@]3(c3ccc(C(F)(F)F)cc3)C2)cc1-c1cccnn1 [Example E26, 5-(3-pyridazinyl)-1-(3-{(1S,5R)-1-[4-(trifluoromethyl)phenyl]-3-azabicyclo[3.1.0]hex-3-yl}propyl)-2,4(1H,3H)-pyrimidinedione hydrochloride]
Cc1ncccc1-c1cn(CCCCN2C[C@@H]3C[C@]3(c3ccc(C(F)(F)F)cc3)C2)c(=O)[nH]c1=O.Cl.Cl [Example E29, 5-(2-methyl-3-pyridinyl)-1-(4-{(1S,5R)-1-[4-(trifluoromethyl)phenyl]-3-azabicyclo[3.1.0]hex-3-yl}butyl)-2,4(1H,3H)-pyrimidinedione dihydrochloride]
Cc1ccccc1-c1cn(CCCN2C[C@@H]3C[C@]3(c3ccc(C(F)(F)F)cc3)C2)c(=O)[nH]c1=O.Cl [Example E31, 5-(2-methylphenyl)-1-(3-{(1S,5R)-1-[4-(trifluoromethyl)phenyl]-3-azabicyclo[3.1.0]hex-3-yl}propyl)-2,4(1H,3H)-pyrimidinedione hydrochloride]
Cc1cccc(-c2cn(CCCCN3C[C@@H]4C[C@]4(c4ccc(C(F)(F)F)cc4)C3)c(=O)[nH]c2=O)n1.Cl.Cl [Example E32, 5-(6-methyl-2-pyridinyl)-1-(4-{(1S,5R)-1-[4-(trifluoromethyl)phenyl]-3-azabicyclo[3.1.0]hex-3-yl}butyl)-2,4(1H,3H)-pyrimidinedione dihydrochloride]
Cl.O=c1[nH]c(=S)ccn1CCCCN1C[C@@H]2C[C@]2(c2ccc(C(F)(F)F)cc2)C1 [Example E33, 4-thioxo-1-(4-{(1S,5R)-1-[4-(trifluoromethyl)phenyl]-3-azabicyclo[3.1.0]hex-3-yl}butyl)-3,4-dihydro-2(1H)-pyrimidinone hydrochloride]
Cc1ccc(-c2cn(CCCN3C[C@@H]4C[C@]4(c4ccc(C(F)(F)F)cc4)C3)c(=O)[nH]c2=O)c(F)n1.Cl.Cl [Example E35, 5-(2-fluoro-6-methyl-3-pyridinyl)-1-(3-{(1S,5R)-1-[4-(trifluoromethyl)phenyl]-3-azabicyclo[3.1.0]hex-3-yl}propyl)-2,4(1H,3H)-pyrimidinedione dihydrochloride]
Cc1nc(F)ccc1-c1cn(CCCN2C[C@@H]3C[C@]3(c3ccc(C(F)(F)F)cc3)C2)c(=O)[nH]c1=O.Cl.Cl [Example E36, 5-(6-fluoro-2-methyl-3-pyridinyl)-1-(3-{(1S,5R)-1-[4-(trifluoromethyl)phenyl]-3-azabicyclo[3.1.0]hex-3-yl}propyl)-2,4(1H,3H)-pyrimidinedione dihydrochloride]
O=c1[nH]c(=O)n(CCCN2CC3C[C@]3(c3ccc(C(F)(F)F)cc3)C2)cc1-c1cccc(C(F)(F)F)n1 (some centres unmarked) [Example E38, dihydrochloride]
Cc1nc(-c2cn(CCCN3C[C@@H]4C[C@]4(c4ccc(C(F)(F)F)cc4)C3)c(=O)[nH]c2=O)ccc1F.Cl.Cl [Example E39, 5-(5-fluoro-6-methyl-2-pyridinyl)-1-(3-{(1S,5R)-1-[4-(trifluoromethyl)phenyl]-3-azabicyclo[3.1.0]hex-3-yl}propyl)-2,4(1H,3H)-pyrimidinedione dihydrochloride]
Cc1ccc(-c2cn(CCCN3C[C@@H]4C[C@]4(c4ccc(C(F)(F)F)cc4)C3)c(=O)[nH]c2=O)cn1.Cl.Cl [Example E40, 5-(6-methyl-3-pyridinyl)-1-(3-{(1S,5R)-1-[4-(trifluoromethyl)phenyl]-3-azabicyclo[3.1.0]hex-3-yl}propyl)-2,4(1H,3H)-pyrimidinedione dihydrochloride]
